Reference: PubChem BioAssay AID328 (DTP/NCI, 2004)
“And” between values parts separate entries of the source, which are not always exact repeats. Equal values may be shown once. Toxic doses and inconclusive results are not listed.

Tested on: BDF1 mice, P388 leukemia ip, median survival T/C
Experiment: NCI In Vivo Anticancer Drug Screen. Data for tumor model P388 Leukemia (intraperitoneal) in B6D2F1 (BDF1) mice
Settings: endpoint: median survival time, higher = longer survival
In short: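 Each value expresses how treatment altered survival: treated-mouse outcome over vehicle-mouse outcome, both groups bearing the transplanted tumour.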

[1] = dose: 100.0 mg/kg/injection, schedule: Q01DX009 (ip), vehicle: saline with Tween-80
[2] = dose: 200.0 mg/kg/injection, schedule: Q01DX009 (ip), vehicle: saline with Tween-80
[3] = dose: 400.0 mg/kg/injection, schedule: Q01DX009 (ip), vehicle: saline with Tween-80
[4] = dose: 25.0 mg/kg/injection, schedule: Q01DX009 (ip), vehicle: saline with Tween-80
[5] = dose: 50.0 mg/kg/injection, schedule: Q01DX009 (ip), vehicle: saline with Tween-80
[6] = dose: 50.0 mg/kg/injection, schedule: Q04DX003 (ip), vehicle: saline
[7] = dose: 50.0 mg/kg/injection, schedule: Q04DX003 (ip), vehicle: saline with Tween-80
[8] = dose: 100.0 mg/kg/injection, schedule: Q04DX003 (ip), vehicle: saline with Tween-80
[9] = dose: 400.0 mg/kg/injection, schedule: Q04DX003 (ip), vehicle: saline with Tween-80
[10] = dose: 150.0 mg/kg/injection, schedule: Q04DX003 (ip), vehicle: saline sonified
[11] = dose: 3.12 mg/kg/injection, schedule: Q01DX009 (ip), vehicle: saline with Tween-80
[12] = dose: 6.25 mg/kg/injection, schedule: Q01DX009 (ip), vehicle: saline with Tween-80
[13] = dose: 12.5 mg/kg/injection, schedule: Q01DX009 (ip), vehicle: saline with Tween-80
[14] = dose: 200.0 mg/kg/injection, schedule: Q04DX003 (ip), vehicle: saline with Tween-80

For `CNC(=O)Oc1ccc2ccccc2c1`, the T/C [1] was 111 % of control, the T/C [2] was 113 % of control and the T/C [3] was 103 % of control.
For `CCOC(=O)c1c(NC(=O)CCC(=O)Nc2sc(C)c(C)c2C(=O)OCC)sc(C)c1C`, the T/C [4] was 109 % of control, the T/C [5] was 90 % of control and the T/C [6] was 87 % of control. The T/C [1] was 90 % of control and the T/C (dose: 400.0 mg/kg/injection, schedule: Q04DX003 (ip), vehicle: saline) was 91 % of control.
`CC1=CC(=O)N(O)CCCC(N)C(=O)OCCC(C)=CC(=O)N(O)CCCC(N)C(=O)OCCC(C)=CC(=O)N(O)CCCC(N)C(=O)OCC1` (stereo not given) was tested, and the T/C (dose: 3.0 mg/kg/injection, schedule: Q01DX009 (ip), vehicle: Klucel (hydroxypropylcellulose) (HPC)) was 89 % of control, the T/C (dose: 6.0 mg/kg/injection, schedule: Q01DX009 (ip), vehicle: Klucel (hydroxypropylcellulose) (HPC)) was 87 % of control and the T/C (dose: 12.0 mg/kg/injection, schedule: Q01DX009 (ip), vehicle: Klucel (hydroxypropylcellulose) (HPC)) was 87 % of control. For the same compound, the T/C (dose: 24.0 mg/kg/injection, schedule: Q01DX009 (ip), vehicle: Klucel (hydroxypropylcellulose) (HPC)) was 92 % of control.
`NC(N)=NO` was tested, and the T/C (dose: 9.37 mg/kg/injection, schedule: Q01DX009 (ip), vehicle: saline) was 91 % of control, the T/C (dose: 9.38 mg/kg/injection, schedule: Q01DX009 (ip), vehicle: saline) was 90 % of control and the T/C (dose: 18.75 mg/kg/injection, schedule: Q01DX009 (ip), vehicle: saline) was 100 % of control and 103 % of control. For the same compound, the T/C (dose: 37.5 mg/kg/injection, schedule: Q01DX009 (ip), vehicle: saline) was 112 % of control and 115 % of control, the T/C (dose: 200.0 mg/kg/injection, schedule: Q01DX009 (ip), vehicle: saline) was 166 % of control and 168 % of control and the T/C (dose: 300.0 mg/kg/injection, schedule: Q01DX009 (ip), vehicle: saline) was 158 % of control and 163 % of control. The T/C (dose: 400.0 mg/kg/injection, schedule: Q01DX009 (ip), vehicle: saline) was 195 % of control and 198 % of control.
In the case of `COc1ccc(NC(=S)NN)cc1`, the T/C (dose: 25.0 mg/kg/injection, schedule: Q04DX003 (ip), vehicle: saline with Tween-80) is reported as 100 % of control, the T/C [7] is reported as 100 % of control and the T/C (dose: 66.0 mg/kg/injection, schedule: Q04DX003 (ip), vehicle: saline with Tween-80) is reported as 100 % of control. For the same compound, the T/C [8] was 100 % of control and the T/C (dose: 150.0 mg/kg/injection, schedule: Q04DX003 (ip), vehicle: saline with Tween-80) was 90 % of control.
For `CC(C)(C)c1ccc(OS(=O)(=O)c2ccccc2[N+](=O)[O-])cc1`, the T/C (dose: 100.0 mg/kg/injection, schedule: Q01DX001 (ip), vehicle: saline with Tween-80) was 104 % of control, the T/C (dose: 200.0 mg/kg/injection, schedule: Q01DX001 (ip), vehicle: saline with Tween-80) was 100 % of control and the T/C (dose: 400.0 mg/kg/injection, schedule: Q01DX001 (ip), vehicle: saline with Tween-80) was 113 % of control.
In the case of `CC(C)CCOP(=S)(N1CC1)N1CC1`, the T/C [9] is reported as 177 % of control.
`[CH3][Ga][CH3].[CH3][Ga][CH3].[CH3][Ga][CH3].[CH3][Ga][CH3].[OH3+].[OH3+].[OH3+].[OH3+]` was tested, and the T/C (dose: 2.5 mg/kg/injection, schedule: Q01DX009 (ip), vehicle: saline with Tween-80) was 90 % of control.
For `CCN(CC)CCOC(=O)c1ccc(OCCOc2ccc(C(C)(C)CC(C)(C)C)cc2)c([N+](=O)[O-])c1`, the T/C (dose: 75.0 mg/kg/injection, schedule: Q04DX003 (ip), vehicle: saline sonified) was 110 % of control, the T/C [10] was 110 % of control and the T/C (dose: 300.0 mg/kg/injection, schedule: Q04DX003 (ip), vehicle: saline sonified) was 105 % of control.
With `Cc1ccc(S(=O)(=O)OCCN(CCOS(=O)(=O)c2ccc(C)cc2)c2ccc(F)cc2)cc1` the T/C (dose: 29.3 mg/kg/injection, schedule: Q01DX009 (ip), vehicle: other) was 190 % of control, the T/C (dose: 44.0 mg/kg/injection, schedule: Q01DX009 (ip), vehicle: other) was 213 % of control and the T/C (dose: 66.0 mg/kg/injection, schedule: Q01DX009 (ip), vehicle: other) was 245 % of control and 272 % of control. The T/C (dose: 66.0 mg/kg/injection, schedule: Q04DX003 (ip), vehicle: saline sonified) was 105 % of control, the T/C (dose: 100.0 mg/kg/injection, schedule: Q04DX003 (ip), vehicle: saline sonified) was 100 % of control and the T/C [10] was 105 % of control. For the same compound, the T/C (dose: 200.0 mg/kg/injection, schedule: Q01DX009 (ip), vehicle: other) was 113 % of control, the T/C (dose: 200.0 mg/kg/injection, schedule: Q04DX003 (ip), vehicle: other) was 154 % of control and the T/C (dose: 400.0 mg/kg/injection, schedule: Q04DX003 (ip), vehicle: other) was 150 % of control.
For `CC(=O)n1cc(F)c(=O)[nH]c1=O`, the T/C (dose: 0.57 mg/kg/injection, schedule: Q01DX009 (ip), vehicle: saline) was 116 % of control, the T/C (dose: 0.99 mg/kg/injection, schedule: Q01DX009 (ip), vehicle: saline) was 113 % of control and the T/C (dose: 1.3 mg/kg/injection, schedule: Q01DX009 (ip), vehicle: saline) was 122 % of control. The T/C (dose: 2.0 mg/kg/injection, schedule: Q01DX009 (ip), vehicle: saline) was 165 % of control, the T/C [11] was 150 % of control and the T/C (dose: 5.0 mg/kg/injection, schedule: Q04DX003 (ip), vehicle: saline) was 122 % of control. For the same compound, the T/C [12] was 160 % of control and 165 % of control, the T/C (dose: 7.2 mg/kg/injection, schedule: Q01DX009 (ip), vehicle: saline with Tween-80) was 166 % of control and the T/C [13] was 178 % of control and 215 % of control. The T/C [4] was 235 % of control and 195 % of control, the T/C (dose: 25.0 mg/kg/injection, schedule: Q04DX003 (ip), vehicle: saline) was 122 % of control and the T/C [5] was 86 % of control. For the same compound, the T/C [7] was 155 % of control, the T/C [6] was 150 % of control and the T/C (dose: 100.0 mg/kg/injection, schedule: Q04DX003 (ip), vehicle: other) was 108 % of control. For the same compound, the T/C (dose: 100.0 mg/kg/injection, schedule: Q04DX003 (ip), vehicle: saline) was 181 % of control, the T/C (dose: 150.0 mg/kg/injection, schedule: Q04DX003 (ip), vehicle: other) was 100 % of control and the T/C [9] was 90 % of control.
With `Br[CH2][Sn]([Br])([Br])[CH2]Br` the T/C [11] was 111 % of control, the T/C [12] was 98 % of control and the T/C [13] was 115 % of control.
In the case of `CC(C)(C)C(O)CC(C)(O)C(C)(C)C` (stereo not given), the T/C (dose: 6.3 mg/kg/injection, schedule: Q01DX009 (ip), vehicle: Klucel (hydroxypropylcellulose) (HPC)) is reported as 101 % of control, the T/C (dose: 12.5 mg/kg/injection, schedule: Q01DX009 (ip), vehicle: Klucel (hydroxypropylcellulose) (HPC)) is reported as 107 % of control and the T/C (dose: 25.0 mg/kg/injection, schedule: Q01DX009 (ip), vehicle: Klucel (hydroxypropylcellulose) (HPC)) is reported as 108 % of control.
In the case of `CS(=O)(=O)OC[C@H](OS(=O)(=O)O)[C@H](COS(C)(=O)=O)OS(=O)(=O)O`, the T/C [7] is reported as 110 % of control, the T/C [8] is reported as 110 % of control and the T/C [14] is reported as 110 % of control.
In the case of `CN(C)C(=O)C1CCC1`, the T/C [1] is reported as 104 % of control, the T/C [2] is reported as 90 % of control and the T/C [3] is reported as 113 % of control.
With `CC(=O)CC(C)=O.CC(=O)CC(C)=O.O=N[O-].O=N[O-].[Co]` the T/C (dose: 25.0 mg/kg/injection, schedule: Q04DX002 (ip), vehicle: saline with Tween-80) was 106 % of control and the T/C (dose: 50.0 mg/kg/injection, schedule: Q04DX002 (ip), vehicle: saline with Tween-80) was 109 % of control.
With `COc1cc(O)c(Cc2ccccc2O)c(O)c1C(=O)CCc1ccccc1` the T/C (dose: 0.5 mg/kg/injection, schedule: Q01DX009 (ip), vehicle: alcohol) was 100 % of control, the T/C (dose: 2.0 mg/kg/injection, schedule: Q01DX009 (ip), vehicle: alcohol) was 105 % of control and the T/C (dose: 4.0 mg/kg/injection, schedule: Q01DX009 (ip), vehicle: alcohol) was 97 % of control. The T/C (dose: 5.9 mg/kg/injection, schedule: Q01DX009 (ip), vehicle: alcohol) was 119 % of control and the T/C (dose: 9.0 mg/kg/injection, schedule: Q01DX009 (ip), vehicle: alcohol) was 101 % of control.
`OCCN(CCO)c1cc(O)cc(O)c1` was tested, and the T/C [8] was 106 % of control, the T/C [14] was 120 % of control and the T/C [9] was 117 % of control.
In the case of `C=CC[n+]1ccc(/C=N\NC(N)=S)c2ccccc21`, the T/C (dose: 6.25 mg/kg/injection, schedule: Q01DX009 (ip), vehicle: saline) is reported as 111 % of control, the T/C (dose: 12.5 mg/kg/injection, schedule: Q01DX009 (ip), vehicle: saline) is reported as 101 % of control and the T/C (dose: 25.0 mg/kg/injection, schedule: Q01DX009 (ip), vehicle: saline) is reported as 106 % of control.
`CC(=S)Nc1ccc2ccccc2c1` was tested, and the T/C [1] was 107 % of control, the T/C [8] was 118 % of control and the T/C [2] was 107 % of control. The T/C [14] was 109 % of control, the T/C [3] was 119 % of control and the T/C [9] was 122 % of control.
